This note sets out measurements from US11452708B2, “Discovery of potent [alpha]-glucosidase inhibitors from Heterophragma adenophyllum” (KING ABDULAZIZ UNIVERSITY, priority 2021, dated 2022).

The assay deals with α-glucosidase (E.C.3.2.1.20) (Saccharomyces cerevisiae, UniProt P53341). Kind of assay: α-glucosidase inhibitory activity (p-nitrophenyl-α-d-glucopyranoside substrate, absorbance at 400 nm). The class given is biochemical. The settings on record: in vitro; for IC50: 0.1 M phosphate buffer, pH 6.8, 37° C., standard acarbose, unit inferred. The protocol:
. The substrate (0.7 Mm, p-nitrophenyl-α-d-glucopyranoside) was then mixed in and the difference in absorbance at 400 nm was recorded using a spectrophotometer for 30 minutes. The tested extracts and compound 1 were substituted with DMSO-d6 (7.5%) in the control. The standard drug used in this experiment was acarbose. The percentage activity was calculated by using the following formula.

[1] abbreviates: read-out: IC50, α-glucosidase inhibition.

“And” between values parts separate entries of the source, which are not always exact repeats. Equal values may be shown once. Read-outs that look alike come from different tables or passages of the source.

Sequence of α-glucosidase (E.C.3.2.1.20) (P53341 whole entry): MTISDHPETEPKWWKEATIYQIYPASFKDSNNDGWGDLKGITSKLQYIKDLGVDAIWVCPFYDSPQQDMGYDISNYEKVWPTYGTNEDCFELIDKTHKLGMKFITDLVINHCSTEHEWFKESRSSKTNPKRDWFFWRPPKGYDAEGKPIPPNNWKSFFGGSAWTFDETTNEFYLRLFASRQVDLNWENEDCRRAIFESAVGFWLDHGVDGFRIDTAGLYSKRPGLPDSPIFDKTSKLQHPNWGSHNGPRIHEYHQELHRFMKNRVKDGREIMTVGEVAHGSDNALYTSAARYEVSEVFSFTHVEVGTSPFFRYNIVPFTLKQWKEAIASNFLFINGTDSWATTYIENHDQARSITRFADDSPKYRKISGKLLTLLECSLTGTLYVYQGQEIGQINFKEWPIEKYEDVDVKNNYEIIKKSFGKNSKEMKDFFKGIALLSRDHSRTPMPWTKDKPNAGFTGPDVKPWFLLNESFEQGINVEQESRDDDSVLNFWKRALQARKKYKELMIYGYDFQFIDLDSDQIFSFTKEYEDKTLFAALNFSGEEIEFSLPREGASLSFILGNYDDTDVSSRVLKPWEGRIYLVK

For peshawaraquinone [Compound 2], the “α-glucosidase inhibitory activity (in words)” value (comparison among the tested compounds 1-4) is listed as “least active”.

In the case of `CC1(C)CCC2=C(O1)C(=O)c1ccccc1C2=O` [Compound 4, α-lapachone], the IC50 under setting [1] is 117 µM and 78.3 µM.

Take `COC(=O)C1(O)c2ccccc2C(=O)C1(O)CC=C(C)C` (stereo not shown) [Compound 3, Methyl 1,2-dihydroxy-2-(3-methylbut-2-enyl)-3-oxo-2,3-dihydroxo-1H-indene-1-carboxylate]: the IC50 (IC50, α-glucosidase inhibition) was 78.3 µM and 117 µM.

For the compound `CC(C)=CCC1=C(O)C(=O)c2ccccc2C1=O` [Compound 1, lapachol], under setting [1], the IC50 was found to be 33.1 ± 2.41 µM.
